Test results reported in ChEMBL document CHEMBL3608278 (J Med Chem, 2015).
pIC50: −log10 of the molar value.

Tests used:
[1] = target: T1, Potassium voltage-gated channel subfamily A member 3 (Homo sapiens, UniProt P22001); assay type: cell-based, CHO-K1
[2] = target: T1, Potassium voltage-gated channel subfamily A member 3; assay: cell-based; parameters: species or system Blood
[3] = target: T1, Potassium voltage-gated channel subfamily A member 3; parameters: species or system Blood

T1 sequence (P22001 whole entry): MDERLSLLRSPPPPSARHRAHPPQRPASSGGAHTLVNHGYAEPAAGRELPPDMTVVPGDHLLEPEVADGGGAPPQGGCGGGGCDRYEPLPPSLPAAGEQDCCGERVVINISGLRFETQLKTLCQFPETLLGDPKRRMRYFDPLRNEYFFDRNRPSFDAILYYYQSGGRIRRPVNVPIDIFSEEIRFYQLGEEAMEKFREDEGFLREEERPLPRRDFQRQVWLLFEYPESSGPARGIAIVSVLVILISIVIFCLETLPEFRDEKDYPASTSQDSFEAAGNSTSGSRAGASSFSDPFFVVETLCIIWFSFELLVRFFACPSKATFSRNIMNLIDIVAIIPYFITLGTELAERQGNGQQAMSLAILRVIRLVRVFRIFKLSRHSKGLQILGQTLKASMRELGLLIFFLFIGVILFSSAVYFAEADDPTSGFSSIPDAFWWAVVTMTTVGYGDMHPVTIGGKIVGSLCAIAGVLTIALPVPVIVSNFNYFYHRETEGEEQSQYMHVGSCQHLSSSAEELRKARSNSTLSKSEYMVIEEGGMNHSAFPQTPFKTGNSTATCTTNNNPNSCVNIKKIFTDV

| SMILES | pIC50 [1] | pIC50 [2] | pIC50 [3] |
| --- | --- | --- | --- |
| CC[C@H](C)[C@@H]1NC(=O)[C@@H](NC(=O)[C@H](CO)NC(=O)[C@H](C)N)CSSC[C@@H](C(=O)O)NC(=O)[C@H]([C@@H](C)O)NC(=O)CNC(=O)[C@@H]2CSSC[C@@H]3NC(=O)[C@H](CCC(N)=O)NC(=O)[C@H](Cc4ccccc4)NC(=O)[C@H](C)NC(=O)[C@H]([C@@H](C)O)NC(=O)[C@H](CSSC[C@H](NC(=O)[C@H](Cc4ccccc4)NC(=O)[C@H](CO)NC(=O)[C@H](CC(C)C)NC(=O)[C@H](CCCNC(=N)N)NC(=O)[C@H](Cc4ccc(O)cc4)NC(=O)[C@H](CCCCN)NC(=O)[C@H](CCSC)NC(=O)[C@H](CO)NC(=O)[C@H](Cc4cnc[nH]4)NC(=O)[C@H](CCCCN)NC3=O)C(=O)N[C@@H](CCCNC(=N)N)C(=O)N[C@@H](CCCCN)C(=O)N[C@@H]([C@@H](C)O)C(=O)N2)NC(=O)[C@H](CCCNC(=N)N)NC(=O)[C@H](CO)NC(=O)[C@H](CCCCN)NC(=O)[C@@H]2CCCN2C(=O)[C@H]([C@@H](C)CC)NC(=O)[C@H]([C@@H](C)O)NC(=O)[C@H](CC(=O)O)NC1=O | 9.78 | 10.21 | – |
| CC[C@H](C)[C@@H]1NC(=O)[C@@H](NC(=O)[C@H](CCCCN)NC(=O)[C@@H](N)CCCNC(=N)N)CSSC[C@@H](C(=O)O)NC(=O)[C@H]([C@@H](C)O)NC(=O)CNC(=O)[C@@H]2CSSC[C@@H]3NC(=O)[C@H](CCC(N)=O)NC(=O)[C@H](Cc4ccccc4)NC(=O)[C@H](C)NC(=O)[C@H]([C@@H](C)O)NC(=O)[C@H](CSSC[C@H](NC(=O)[C@H](Cc4ccccc4)NC(=O)[C@H](CO)NC(=O)[C@H](CC(C)C)NC(=O)[C@H](CCCNC(=N)N)NC(=O)[C@H](Cc4ccc(O)cc4)NC(=O)[C@H](CCCCN)NC(=O)[C@H](CCSC)NC(=O)[C@H](CO)NC(=O)[C@H](Cc4cnc[nH]4)NC(=O)[C@H](CCCCN)NC3=O)C(=O)N[C@@H](CCCNC(=N)N)C(=O)N[C@@H](CCCCN)C(=O)N[C@@H]([C@@H](C)O)C(=O)N2)NC(=O)[C@H](CCCNC(=N)N)NC(=O)[C@H](CO)NC(=O)[C@H](CCCCN)NC(=O)[C@@H]2CCCN2C(=O)[C@H]([C@@H](C)CC)NC(=O)[C@H]([C@@H](C)O)NC(=O)[C@H](CC(=O)O)NC1=O | 9.84 | 10.00 | 10.03 |
| CC[C@H](C)[C@@H]1NC(=O)[C@@H](NC(=O)[C@H](CO)NC(=O)[C@@H](N)CCCNC(=N)N)CSSC[C@@H](C(=O)O)NC(=O)[C@H]([C@@H](C)O)NC(=O)CNC(=O)[C@@H]2CSSC[C@@H]3NC(=O)[C@H](CCC(N)=O)NC(=O)[C@H](Cc4ccccc4)NC(=O)[C@H](C)NC(=O)[C@H]([C@@H](C)O)NC(=O)[C@H](CSSC[C@H](NC(=O)[C@H](Cc4ccccc4)NC(=O)[C@H](CO)NC(=O)[C@H](CC(C)C)NC(=O)[C@H](CCCNC(=N)N)NC(=O)[C@H](Cc4ccc(O)cc4)NC(=O)[C@H](CCCCN)NC(=O)[C@H](CCSC)NC(=O)[C@H](CO)NC(=O)[C@H](Cc4cnc[nH]4)NC(=O)[C@H](CCCCN)NC3=O)C(=O)N[C@@H](CCCNC(=N)N)C(=O)N[C@@H](CCCNC(=N)N)C(=O)N[C@@H]([C@@H](C)O)C(=O)N2)NC(=O)[C@H](CCCNC(=N)N)NC(=O)[C@H](CO)NC(=O)[C@H](CCCCN)NC(=O)[C@@H]2CCCN2C(=O)[C@H]([C@@H](C)CC)NC(=O)[C@H]([C@@H](C)O)NC(=O)[C@H](CC(=O)O)NC1=O | 10.42 | – | 10.24 |
| CC[C@H](C)[C@@H]1NC(=O)[C@@H](NC(=O)[C@H](CO)NC(=O)[C@@H](N)CCCNC(=N)N)CSSC[C@@H](C(=O)O)NC(=O)[C@H]([C@@H](C)O)NC(=O)CNC(=O)[C@@H]2CSSC[C@@H]3NC(=O)[C@H](CCC(N)=O)NC(=O)[C@H](Cc4ccccc4)NC(=O)[C@H](C)NC(=O)[C@H]([C@@H](C)O)NC(=O)[C@H](CSSC[C@H](NC(=O)[C@H](Cc4ccccc4)NC(=O)[C@H](CO)NC(=O)[C@H](CC(C)C)NC(=O)[C@H](CCCNC(=N)N)NC(=O)[C@H](Cc4ccc(O)cc4)NC(=O)[C@H](CCCCN)NC(=O)[C@H](CCSC)NC(=O)[C@H](CO)NC(=O)[C@H](Cc4cnc[nH]4)NC(=O)[C@H](CCCCN)NC3=O)C(=O)N[C@@H](CCCNC(=N)N)C(=O)N[C@@H](CCCCN)C(=O)N[C@@H]([C@@H](C)O)C(=O)N2)NC(=O)[C@H](CCCNC(=N)N)NC(=O)[C@H](CO)NC(=O)[C@H](CCCCN)NC(=O)[C@@H]2CCCN2C(=O)[C@H]([C@@H](C)CC)NC(=O)[C@H]([C@@H](C)O)NC(=O)[C@H](CCCCN)NC1=O | < 8.48 | < 7.00 | < 7.00 |
| CC[C@H](C)[C@@H]1NC(=O)[C@@H](NC(=O)[C@H](CO)NC(=O)[C@@H](N)CCCNC(=N)N)CSSC[C@@H](C(=O)O)NC(=O)[C@H]([C@@H](C)O)NC(=O)CNC(=O)[C@@H]2CSSC[C@@H]3NC(=O)[C@H](CCC(N)=O)NC(=O)[C@H](Cc4ccccc4)NC(=O)[C@H](C)NC(=O)[C@H]([C@@H](C)O)NC(=O)[C@H](CSSC[C@H](NC(=O)[C@H](Cc4ccccc4)NC(=O)[C@H](CO)NC(=O)[C@H](CC(C)C)NC(=O)[C@H](CCCNC(=N)N)NC(=O)[C@H](Cc4ccc(O)cc4)NC(=O)[C@H](CCCCN)NC(=O)[C@H](CCSC)NC(=O)[C@H](CO)NC(=O)[C@H](Cc4c[nH]cn4)NC(=O)[C@H](CCCCN)NC3=O)C(=O)N[C@@H](CCCNC(=N)N)C(=O)N[C@@H](CCCCN)C(=O)N[C@@H]([C@@H](C)O)C(=O)N2)NC(=O)[C@H](CCCNC(=N)N)NC(=O)[C@H](CO)NC(=O)[C@H](CCCCN)NC(=O)[C@@H]2CCCN2C(=O)[C@H]([C@@H](C)CC)NC(=O)[C@H](CCCCN)NC(=O)[C@H](CC(=O)O)NC1=O | 9.89 | 9.93 | 9.68 |
| CC[C@H](C)[C@@H]1NC(=O)[C@@H](NC(=O)[C@H](CO)NC(=O)[C@@H](N)CCCNC(=N)N)CSSC[C@@H](C(=O)O)NC(=O)[C@H]([C@@H](C)O)NC(=O)CNC(=O)[C@@H]2CSSC[C@@H]3NC(=O)[C@H](CCC(N)=O)NC(=O)[C@H](Cc4ccccc4)NC(=O)[C@H](C)NC(=O)[C@H]([C@@H](C)O)NC(=O)[C@H](CSSC[C@H](NC(=O)[C@H](Cc4ccccc4)NC(=O)[C@H](CO)NC(=O)[C@H](CC(C)C)NC(=O)[C@H](CCCNC(=N)N)NC(=O)[C@H](Cc4ccc(O)cc4)NC(=O)[C@H](CCCCN)NC(=O)[C@H](CCSC)NC(=O)[C@H](CO)NC(=O)[C@H](Cc4cnc[nH]4)NC(=O)[C@H](CCCCN)NC3=O)C(=O)N[C@@H](CCCNC(=N)N)C(=O)N[C@@H](CCCCN)C(=O)N[C@@H]([C@@H](C)O)C(=O)N2)NC(=O)[C@H](CCCNC(=N)N)NC(=O)[C@H](CO)NC(=O)[C@H](CCCCN)NC(=O)[C@@H]2CCCN2C(=O)[C@H](CCCCN)NC(=O)[C@H]([C@@H](C)O)NC(=O)[C@H](CC(=O)O)NC1=O | 9.25 | 8.33 | 7.87 |
| CC[C@H](C)[C@@H]1NC(=O)[C@@H](NC(=O)[C@H](CO)NC(=O)[C@@H](N)CCCNC(=N)N)CSSC[C@@H](C(=O)O)NC(=O)[C@H]([C@@H](C)O)NC(=O)CNC(=O)[C@@H]2CSSC[C@@H]3NC(=O)[C@H](CCC(N)=O)NC(=O)[C@H](Cc4ccccc4)NC(=O)[C@H](C)NC(=O)[C@H]([C@@H](C)O)NC(=O)[C@H](CSSC[C@H](NC(=O)[C@H](Cc4ccccc4)NC(=O)[C@H](CO)NC(=O)[C@H](CC(C)C)NC(=O)[C@H](CCCNC(=N)N)NC(=O)[C@H](Cc4ccc(O)cc4)NC(=O)[C@H](CCCCN)NC(=O)[C@H](CCSC)NC(=O)[C@H](CO)NC(=O)[C@H](Cc4cnc[nH]4)NC(=O)[C@H](CCCCN)NC3=O)C(=O)N[C@@H](CCCNC(=N)N)C(=O)N[C@@H](CCCCN)C(=O)N[C@@H]([C@@H](C)O)C(=O)N2)NC(=O)[C@H](CCCNC(=N)N)NC(=O)[C@H](CCCCN)NC(=O)[C@H](CCCCN)NC(=O)[C@@H]2CCCN2C(=O)[C@H]([C@@H](C)CC)NC(=O)[C@H]([C@@H](C)O)NC(=O)[C@H](CC(=O)O)NC1=O | 9.74 | 10.28 | 10.09 |
| CC[C@H](C)[C@@H]1NC(=O)[C@@H](NC(=O)[C@H](CO)NC(=O)[C@@H](N)CCCNC(=N)N)CSSC[C@@H](C(=O)O)NC(=O)[C@H]([C@@H](C)O)NC(=O)CNC(=O)[C@@H]2CSSC[C@@H]3NC(=O)[C@H](CCC(N)=O)NC(=O)[C@H](Cc4ccccc4)NC(=O)[C@H](C)NC(=O)[C@H](CCCCN)NC(=O)[C@H](CSSC[C@H](NC(=O)[C@H](Cc4ccccc4)NC(=O)[C@H](CO)NC(=O)[C@H](CC(C)C)NC(=O)[C@H](CCCNC(=N)N)NC(=O)[C@H](Cc4ccc(O)cc4)NC(=O)[C@H](CCCCN)NC(=O)[C@H](CCSC)NC(=O)[C@H](CO)NC(=O)[C@H](Cc4cnc[nH]4)NC(=O)[C@H](CCCCN)NC3=O)C(=O)N[C@@H](CCCNC(=N)N)C(=O)N[C@@H](CCCCN)C(=O)N[C@@H]([C@@H](C)O)C(=O)N2)NC(=O)[C@H](CCCNC(=N)N)NC(=O)[C@H](CO)NC(=O)[C@H](CCCCN)NC(=O)[C@@H]2CCCN2C(=O)[C@H]([C@@H](C)CC)NC(=O)[C@H]([C@@H](C)O)NC(=O)[C@H](CC(=O)O)NC1=O | 9.81 | 9.59 | 9.44 |
| CC[C@H](C)[C@@H]1NC(=O)[C@@H](NC(=O)[C@H](CO)NC(=O)[C@@H](N)CCCNC(=N)N)CSSC[C@@H](C(=O)O)NC(=O)[C@H]([C@@H](C)O)NC(=O)CNC(=O)[C@@H]2CSSC[C@@H]3NC(=O)[C@H](CCC(N)=O)NC(=O)[C@H](Cc4ccccc4)NC(=O)[C@H](C)NC(=O)[C@H]([C@@H](C)O)NC(=O)[C@H](CSSC[C@H](NC(=O)[C@H](Cc4ccccc4)NC(=O)[C@H](CO)NC(=O)[C@H](CC(C)C)NC(=O)[C@H](CCCNC(=N)N)NC(=O)[C@H](Cc4ccc(O)cc4)NC(=O)[C@H](CCCCN)NC(=O)[C@H](CCSC)NC(=O)[C@H](CO)NC(=O)[C@H](Cc4cnc[nH]4)NC(=O)[C@H](CCCCN)NC3=O)C(=O)N[C@@H](CCCNC(=N)N)C(=O)N[C@@H](CCCCN)C(=O)N[C@@H]([C@@H](C)O)C(=O)N2)NC(=O)[C@H](CCCNC(=N)N)NC(=O)[C@H](Cc2cccc3ccccc23)NC(=O)[C@H](CCCCN)NC(=O)[C@@H]2CCCN2C(=O)[C@H]([C@@H](C)CC)NC(=O)[C@H]([C@@H](C)O)NC(=O)[C@H](CC(=O)O)NC1=O | 9.67 | – | 9.59 |
